Experimental data published in ChEMBL document CHEMBL3244171, “[1-(beta-mercapto-beta,beta-cyclopentamethylenepropionic acid),4-valine,-8-D-arginine]vasopressin, a potent and selective inhibitor of the vasopressor response to arginine-vasopressin” (J Med Chem, 1978).
Where a SMILES comes first, the peptide text is derived from it.

Columns and labels:
[1] = Antioxytocic activity in rat uterus assessed as antagonist activity on oxytocin-induced effect; format: functional, tissue-based
Rattus norvegicus = assay: Antidiuretic activity in iv dosed rat assessed as agonist activity on arginine-vasopressin-induced effect; format: functional, Urine

## CC(C)[C@@H]1NC(=O)[C@H](Cc2ccccc2)NC(=O)[C@H](Cc2ccc(O)cc2)NC(=O)CC2(CCCCC2)SSC[C@@H](C(=O)N2CCC[C@H]2C(=O)N[C@H](CCCN=C(N)N)C(=O)NCC(N)=O)NC(=O)[C@H](CC(N)=O)NC1=O (HELM PEPTIDE1{Y.F.V.N.C.P.[dR].G.[am]}|CHEM1{[O=C(CC1(S[*:2])CCCCC1)[*:1]]}$PEPTIDE1,CHEM1,1:R1-1:R1|PEPTIDE1,CHEM1,5:R3-1:R2$$$V2.0)
[1]
  pA2: 6.62
Rattus norvegicus
  Activity: 0.1 U/ml

## CC(C)[C@@H]1NC(=O)[C@H](Cc2ccccc2)NC(=O)[C@H](Cc2ccc(O)cc2)NC(=O)CC(C)(C)SSC[C@@H](C(=O)N2CCC[C@H]2C(=O)N[C@H](CCCNC(=N)N)C(=O)NCC(N)=O)NC(=O)[C@H](CC(N)=O)NC1=O (HELM PEPTIDE1{Y.F.V.N.C.P.[dR].G.[am]}|CHEM1{[CC(C)(CC(=O)[*:1])S[*:2]]}$PEPTIDE1,CHEM1,1:R1-1:R1|PEPTIDE1,CHEM1,5:R3-1:R2$$$V2.0)
[1]
  pA2: 7.23
